“And” between values parts separate entries of the source, which are not always exact repeats. Equal entries are not always repeated. Where two headings read alike, the source gives them in different places.
Molecular target: Protein arginine deiminase 4 (PAD4) (Homo sapiens, UniProt Q9UM07)
Assay: PAD4 ammonia release assay
Format: biochemical
Experimental: 1) Compound preparation: The compounds were diluted to 80× final concentrations. 2) The compounds were transferred to a 384-well assay plate by Tecan. DMSO: 1.25%. 3) Preparation of 1×Assay buffer: 100 mM HEPES, PH=8.0, 2 mM CaCl2, 50 mM NaCl, 0.1 mM TCEP, 0.6 mg/ml BSA. 4) 2× enzyme working solution (PAD4:20 nM) was prepared with assay buffer, and 10 μL of the obtained working solution were added to the 384-well assay plates. 5) The plate was centrifuged at 1000 rpm for 1 min. 6) After the centrifuge, the plate was incubated at RT for 15 min. 7) 2×BAEE substrate mix (600 μM) was prepared with assay buffer and 10 μL of the obtained substrate mix were added to each well. 8) The plate was centrifuged at 1000 rpm for 1 min and then incubated at RT for 60 min. 9) 1.5× detection mix (DTT:4 mM, OPA:3 mM, EDTA: 30 mM) was prepared, and 10 μL of the mix were added to the plate. 10) The plate was centrifuged at 1000 rpm for 1 min and then incubated at RT for 120 min. 11) The 384-well plates were placed into the Envision (PerkinElmer) and the assay data were collected.
The percent (%) inhibition at each concentration of compound was calculated based on and relative to the signal in the HPE (50 μM ref. compound) and ZPE (1.25% DMSO) wells included within each assay plate. The HPE worked as 100% inhibition, and the ZPE worked as 0% inhibition. The concentrations and % inhibition values for tested compounds were plotted and the concentration of compound required for 50% inhibition (IC50) was determined with a Four-parameter logistic dose response equation. The endpoint value (IC50) for the reference compound was evaluated in each experiment as a quality control measure. If the endpoint value is within 3-fold of the expected value, then the experiment quality is deemed as acceptable. The results are provided in Table 1 below. ≤0.1 μM=“++++”; >0.1 and ≤0.5 μM=“+++”; >0.5 and ≤5.0 μM=“++”; >5.0 μM=“+”. “−”=not available.

[1] = PAD4 ammonia release assay, BAEE substrate, 60 min at RT, read-out: Average IC50 Abs
[2] = PAD4 activity comparison, read-out: PAD4 Ammonia assay IC50

Chain of Protein arginine deiminase 4 (PAD4) (Q9UM07 whole entry): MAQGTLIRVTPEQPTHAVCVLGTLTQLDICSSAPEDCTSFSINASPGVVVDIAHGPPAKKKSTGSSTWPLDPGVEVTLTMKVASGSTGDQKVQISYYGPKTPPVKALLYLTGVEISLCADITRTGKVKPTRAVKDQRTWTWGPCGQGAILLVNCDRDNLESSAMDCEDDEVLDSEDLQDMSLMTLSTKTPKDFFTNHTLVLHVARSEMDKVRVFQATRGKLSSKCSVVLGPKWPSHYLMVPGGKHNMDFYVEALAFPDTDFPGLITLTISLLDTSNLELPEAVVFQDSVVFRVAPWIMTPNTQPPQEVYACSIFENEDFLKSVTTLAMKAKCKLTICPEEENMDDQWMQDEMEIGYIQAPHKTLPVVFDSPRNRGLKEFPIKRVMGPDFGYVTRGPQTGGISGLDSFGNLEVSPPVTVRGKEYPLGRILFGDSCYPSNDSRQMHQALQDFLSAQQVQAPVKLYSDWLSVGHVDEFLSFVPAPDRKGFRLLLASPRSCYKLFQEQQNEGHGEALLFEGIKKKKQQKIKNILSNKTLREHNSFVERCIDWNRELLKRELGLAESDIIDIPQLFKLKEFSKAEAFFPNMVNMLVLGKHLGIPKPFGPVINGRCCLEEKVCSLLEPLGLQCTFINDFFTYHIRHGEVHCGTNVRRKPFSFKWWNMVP

SMILES	IC50 [1]	relative potency of separated isomers in the PAD4 biochemical assay (SFC-separated stereoisomer pairs)	IC50 [2]
COc1cc(C(=O)N2CCC3(CC2)CC3N)cc2nc(-c3cc4cccc5c4n3CCN5CCCO)n(CC3CC3)c12 (centres unmarked) [Example 56, (1-amino-6-azaspiro[2.5]octan-6-yl)(1-(cyclopropylmethyl)-2-(1-(3-hydroxypropyl)-2,3-dihydro-1H-pyrrolo[1,2,3-de]quinoxalin-5-yl)-7-methoxy-1H-benzo[d]imidazol-5-yl)methanone]	> 5 µM		
COc1cc(C(=O)N2CCC[C@@H](N)C2)cc2nc(-c3cc4cccc5c4n3CCN5C)n(C)c12 [Example 25]	> 5 µM		
Cn1c(-c2cc3c(C#N)ccc4c3n2[C@@H](C2CC2)CN4)nc2cc(C(=O)N3C[C@H]4CC[C@@H]3[C@@H]4N)cc(F)c21 [Example 120, (S)-5-(5-((1R,4R,7R)-7-amino-2-azabicyclo[2.2.1]heptane-2-carbonyl)-7-fluoro-1-methyl-1H-benzo[d]imidazol-2-yl)-3-cyclopropyl-2,3-dihydro-1H-pyrrolo[1,2,3-de]quinoxaline-7-carbonitrile]	> 5 µM		
Cn1c(-c2cc3cc(C#N)cc4c3n2[C@H](C2CC2)CN4)nc2cc(C(=O)N3C[C@H]4CC[C@@H]3[C@@H]4N)cc(F)c21 [Example 117, (R)-5-(5-((1R,4R,7R)-7-amino-2-azabicyclo[2.2.1]heptane-2-carbonyl)-7-fluoro-1-methyl-1H-benzo[d]imidazol-2-yl)-3-cyclopropyl-2,3-dihydro-1H-pyrrolo[1,2,3-de]quinoxaline-8-carbonitrile]	> 5 µM		
COc1cc(C(=O)N2CC(F)(F)C3(CNC3)C2)cc2nc(-c3cc4cccc5c4n3CCN5CCCO)n(CC3CC3)c12 [Example 57, (1-(cyclopropylmethyl)-2-(1-(3-hydroxypropyl)-2,3-dihydro-1H-pyrrolo[1,2,3-de]quinoxalin-5-yl)-7-methoxy-1H-benzo[d]imidazol-5-yl)(8,8-difluoro-2,6-diazaspiro[3.4]octan-6-yl)methanone]	> 5 µM		
CCC1C(=O)Nc2c(F)ccc3cc(-c4nc5cc(C(=O)N6C[C@H]7CC[C@@H]6[C@@H]7N)cc(F)c5n4C)n1c23 (stereo partly drawn) [Example 126, 5-(5-((1R,4R,7R)-7-amino-2-azabicyclo[2.2.1]heptane-2-carbonyl)-7-fluoro-1-methyl-1H-benzo[d]imidazol-2-yl)-3-ethyl-9-fluoro-1H-pyrrolo[1,2,3-de]quinoxalin-2(3H)-one]	0.5 to 5 µM		
Cn1c(-c2cc3ccc4c(c3n2CC2CC2)NCC[S+]4[O-])nc2cc(C(=O)N3C[C@H]4CC[C@@H]3[C@@H]4N)cc(F)c21 (stereo partly drawn) [Example 162, ((1R,4R,7R)-7-amino-2-azabicyclo[2.2.1]heptan-2-yl)(2-(9-(cyclopropylmethyl)-4-oxido-1,2,3,9-tetrahydro-[1,4]thiazino[2,3-g]indol-8-yl)-7-fluoro-1-methyl-1H-benzo[d]imidazol-5-yl)methanone]	0.5 to 5 µM		
COc1cc(C(=O)N2C[C@H](N)CC(F)(F)C2)cc2nc(-c3cc4cccc5c4n3CCN5CCCO)n(C)c12 [Example 18, (R)-(5-amino-3,3-difluoropiperidin-1-yl)(2-(1-(3-hydroxypropyl)-2,3-dihydro-1H-pyrrolo[1,2,3-de]quinoxalin-5-yl)-7-methoxy-1-methyl-1H-benzo[d]imidazol-5-yl)methanone]	0.5 to 5 µM		
Cn1c(-c2cc3cccc4c3n2CCO4)nc2cc(C(=O)N3CCC[C@@H](N)C3)ccc21 [A, reference compound]			~15.2 µM and 15.2 µM

Second part, the molecule after the results:

IC50 [1]	relative potency of separated isomers in the PAD4 biochemical assay (SFC-separated stereoisomer pairs)	IC50 [2]	SMILES
0.5 to 5 µM			Cn1c(-c2cc3ccc4c(c3n2CC2CC2)NC(=O)C4(C)C)nc2cc(C(=O)N3C[C@H]4CC[C@@H]3[C@@H]4N)cc(F)c21 [Example 141, 7-(5-((1R,4R,7R)-7-amino-2-azabicyclo[2.2.1]heptane-2-carbonyl)-7-fluoro-1-methyl-1H-benzo[d]imidazol-2-yl)-8-(cyclopropylmethyl)-3,3-dimethyl-3,8-dihydropyrrolo[3,2-g]indol-2(1H)-one]
≤ 0.1 µM			Cn1c(-c2cc3ccc4cc[nH]c4c3n2CC2CCC2)nc2cc(C(=O)N3C[C@H]4CC[C@@H]3[C@@H]4N)cc(F)c21 [Example 165, ((1R,4R,7R)-7-amino-2-azabicyclo[2.2.1]heptan-2-yl)(2-(1-(cyclobutylmethyl)-1,8-dihydropyrrolo[3,2-g]indol-2-yl)-7-fluoro-1-methyl-1H-benzo[d]imidazol-5-yl)methanone]
≤ 0.1 µM	more potent than Example 97		CC[C@H]1CN(CCCO)c2cccc3cc(-c4nc5cc(C(=O)N6C[C@H]7CC[C@@H]6[C@@H]7N)cc(F)c5n4CC)n1c23 [Example 98, ((1R,4R,7R)-7-amino-2-azabicyclo[2.2.1]heptan-2-yl)(1-ethyl-2-((S)-3-ethyl-1-(3-hydroxypropyl)-2,3-dihydro-1H-pyrrolo[1,2,3-de]quinoxalin-5-yl)-7-fluoro-1H-benzo[d]imidazol-5-yl)methanone]
0.5 to 5 µM			Cn1c(-c2cc3ccc4c(c3n2CC2CC2)NCC4(C)C)nc2cc(C(=O)N3C[C@H]4CC[C@@H]3[C@@H]4N)cc(F)c21 [Example 142, ((1R,4R,7R)-7-amino-2-azabicyclo[2.2.1]heptan-2-yl)(2-(1-(cyclopropylmethyl)-6,6-dimethyl-1,6,7,8-tetrahydropyrrolo[3,2-g]indol-2-yl)-7-fluoro-1-methyl-1H-benzo[d]imidazol-5-yl)methanone]
0.5 to 5 µM			CCC1C(=O)Nc2c(Cl)ccc3cc(-c4nc5cc(C(=O)N6C[C@H]7CC[C@@H]6[C@@H]7N)cc(F)c5n4C)n1c23 (stereo partly drawn) [Example 124, 5-(5-((1R,4R,7R)-7-amino-2-azabicyclo[2.2.1]heptane-2-carbonyl)-7-fluoro-1-methyl-1H-benzo[d]imidazol-2-yl)-9-chloro-3-ethyl-1H-pyrrolo[1,2,3-de]quinoxalin-2(3H)-one]
0.1 to 0.5 µM			Cn1c(-c2cc3ccc4c(c3n2CC2CC2)CCCN4)nc2cc(C(=O)N3C[C@H]4CC[C@@H]3[C@@H]4N)cc(F)c21 [Example 163, ((1R,4R,7R)-7-amino-2-azabicyclo[2.2.1]heptan-2-yl)(2-(1-(cyclopropylmethyl)-6,7,8,9-tetrahydro-1H-pyrrolo[2,3-f]quinolin-2-yl)-7-fluoro-1-methyl-1H-benzo[d]imidazol-5-yl)methanone]
0.5 to 5 µM			CC(C)[C@@H]1CNc2cccc3cc(-c4nc5cc(C(=O)N6C[C@H]7CC[C@@H]6[C@@H]7N)cc(F)c5n4C)n1c23 [Example 105, ((1R,4R,7R)-7-amino-2-azabicyclo[2.2.1]heptan-2-yl)(7-fluoro-2-((R)-3-isopropyl-2,3-dihydro-1H-pyrrolo[1,2,3-de]quinoxalin-5-yl)-1-methyl-1H-benzo[d]imidazol-5-yl)methanone]
0.5 to 5 µM			COc1cc(C(=O)N2C[C@H]3CC[C@@H]2[C@@H]3N)cc2nc(-c3cc4cccc5c4n3CCN5CCCNC(=O)NC3CC3)n(C)c12 [Example 6, 1-(3-(5-(5-((1R,4R,7R)-7-amino-2-azabicyclo[2.2.1]heptane-2-carbonyl)-7-methoxy-1-methyl-1H-benzo[d]imidazol-2-yl)-2,3-dihydro-1H-pyrrolo[1,2,3-de]quinoxalin-1-yl)propyl)-3-cyclopropylurea]
0.1 to 0.5 µM			CCC1CN(CCC(C)(C)O)c2cccc3cc(-c4nc5cc(C(=O)N6C[C@H](N)C[C@@H](F)C6)cc(OC)c5n4C)n1c23 (stereo partly drawn) [Example 83, ((3R,5R)-3-amino-5-fluoropiperidin-1-yl)(2-(3-ethyl-1-(3-hydroxy-3-methylbutyl)-2,3-dihydro-1H-pyrrolo[1,2,3-de]quinoxalin-5-yl)-7-methoxy-1-methyl-1H-benzo[d]imidazol-5-yl)methanon]
0.1 to 0.5 µM			CCC1CNc2c(C#N)ccc3cc(-c4nc5cc(C(=O)N6C[C@H]7CC[C@@H]6[C@@H]7N)cc(F)c5n4C)n1c23 (stereo partly drawn) [Example 128, 5-(5-((1R,4R,7R)-7-amino-2-azabicyclo[2.2.1]heptane-2-carbonyl)-7-fluoro-1-methyl-1H-benzo[d]imidazol-2-yl)-3-ethyl-2,3-dihydro-1H-pyrrolo[1,2,3-de]quinoxaline-9-carbonitrile]
0.5 to 5 µM			CCC1C(=O)Nc2cccc3cc(-c4nc5cc(C(=O)N6C[C@H]7CC[C@@H]6[C@@H]7N)cnn5c4C)n1c23 (stereo partly drawn) [Example 137, 2-[7-[(1R,4R,7R)-7-amino-2-azabicyclo[2.2.1]heptane-2-carbonyl]-3-methyl-imidazo[1,2-b]pyridazin-2-yl]-11-ethyl-1,9-diazatricyclo[6.3.1.04,12]dodeca-2,4,6,8(12)-tetraen-10-one]
0.5 to 5 µM		2.31 µM	Cn1c(-c2cc3cccc4c3n2CCN4)nc2cc(C(=O)N3C[C@H]4CC[C@@H]3[C@@H]4N)ccc21 [Example 168, ((1R,4R,7R)-7-amino-2-azabicyclo[2.2.1]heptan-2-yl)(2-(2,3-dihydro-1H-pyrrolo[1,2,3-de]quinoxalin-5-yl)-1-methyl-1H-benzo[d]imidazol-5-yl)methanone]
